Laboratory results as given in US20050261194A1, “Use of thymulin-like peptides for making pain-relieving medicines” (priority 2001, published 2005).

Tests used:
[1] = test system: rats; assay: Fever (rectal temperature) induced by intraperitoneal ET; format: in vivo, rat; conditions: TAP 25 μg i.p. before ET 50 μg i.p.; rectal temperature 1, 3, 6 h; FIG. 4C
Procedure: Protocol 2(b): Different groups of rats (n=5 in each group) were treated in the following fashion • either they received one intraperitoneal injection of 50 μg of ET, • or they were pretreated with the TAP peptide (25 μg, intraperitoneal injection), 30 minutes before an injection of endotoxin.
Rectal temperature was measured at 1 hour, 3 hours and 6 hours.
A control group received an intraperitoneal injection of TAP peptide (25 μg dissolved in 100 μl of saline solution).

[2] = test system: rats; assay: Localized inflammatory hyperalgesia induced by intraplantar injection of endotoxin (ET); PP, PI, HP, TF pain tests; format: in vivo, rat
Procedure: The experiments were conducted using adult, male Sprague-Dewless rats weighing between 200 and 250 g. The animals were reared under optimum conditions of light and temperature (12 h light and shadow cycle; 22±3° C.). Food and water were dispensed ad libitum. All of the experiments were conducted in compliance with the ethical directives relative to pain experiments done on animals in the conscious state (Zimmermann M., 1983, Ethical guidelines for investigations of experimental pain in conscious animals, Pain, 16:109-110) and they were approved by the Institutional Review Board for animal care.
Thermal and mechanical pain tests were done over a period of 3 consecutive days prior to the injections, in order to establish a baseline.
The mechanical nociceptive threshold was determined by the mechanical paw pressure test (PP), while that of the thermal nociceptive threshold was determined using the hot-plate (HP), the paw immersion in hot water (PI) and the tail flick (TF) tests.
The PP test is done by applying a constant pressure of 0.20 g/cm^2 alternatingly to the left and right hind paws in an interval of 5 minutes between 2 consecutive pressure applications.
In the HP test, the animals are placed individually on a hot plate (52.5° C.±0.3° C.). The pain threshold is measured by the latency period lapsed between the moment, at which the animal is placed on the hot plate and the first sign of pain, indicated by the fact that the animal licks the paw or jumps.
In the PI test, the hind paws are wetted alternately in distilled water at 48° C. and the latency time lapsed until the first sign of withdrawal of the paw is noted.
In the TF test, the tail of each animal is immersed in distilled water at 50.5° C. The latency time taken by the animal to withdraw it is noted. The results are based on 3 consecutive trials done in 5 minute intervals.
In the so-called localized model, the rats received on intraplantar injection of a solution (1.25 μg in 50 μl of […]) of endotoxin (Salmonella typhasa lipopolysaccharides, Sigma) into one of the hind paws, which induces both thermal and mechanical hyperalgesia restricted to the paw having received the injection.
Various treatments are then possible • Protocol 1(a): different groups of rats (n=5 in each group) were treated with the analogue peptide (TAP) Glu-Ala-lys-Ser-Gln-Gly-Gly-Ser-Asp (synthesized by Quantum Biotechnologies, Inc., Canada), in the following fashion : • either, they received one intraperitoneal injection (25 μg in 50 μl of physiological saline solution) of this peptide; • or, they were pretreated with different doses of this peptide (1.5 and 25 μg in 50 μl of sodium chloride) by intraperitoneal injection, 30 minutes prior to injection of endotoxins (ET) (1.25 μg in 50 μl of physiological saline solution by intraplantar injection). • Protocol 1(b): other experiments looked at comparing the efficacy of the analog peptides with that of steroids, NSAIDs and peptides known for their antagonism of the hyperalgesia induced by IL-1β and the prostaglandins.
One group of rats was pretreated with intraperitoneal injections of Lys-D-Pro-Thr (10 mg/kg) in 100 μl of physiological saline solution, 30 minutes prior to injection of TAP. This tripeptide is know for its antagonism of the hyperalgesia induced by IL-1β only.
In the second group, the rats received intraperitoneal injections of the Lys-D-Pro-Val tripeptide (10 mg/kg) in 100 μl of saline solution, 30 minutes prior to the injection of TAP. Lys-D-Pro-Val is an antagonist of the hyperalgesia induced by IL-1β and PEG2.
A third and a fourth group were treated with dexamethasone and indomethacin.
Dexamethasone phosphate dissolved in a […] sodium solution was injected, at a concentration of 200 μg/kg, just before and 3 hours after the injection of ET. […]

Q: With “Glu-Ala-lys-Ser-Gln-Gly-Gly-Ser-Asp (SQGGSD; N-terminal Glu-Ala-Lys; printed: Ser-Gln-Gly-Gly-Ser-Asp) [TAP]” as the substance, how does the “effect on ET-induced increase of body temperature” value [1] read?
A: nullified the process of increase of body temperature

Q: And the “effect compared with indomethacin and dexamethasone” value ([2]; ET 1.25 μg intraplantar, indomethacin 4 mg/kg, dexamethasone 200 μg/kg, FIG. 2)?
A: effects similar to those of indomethacin and dexamethasone but at much lower concentrations

Q: And the “analgesic efficacy compared with Lys-D-Pro-Val and Lys-D-Pro-Thr peptides” value ([2]; ET 1.25 μg intraplantar, tripeptides 10 mg/kg i.p., FIG. 2)?
A: much more efficacious analgesic agent

Q: And the “latency, paw pressure (PP) test” value ([2]; TAP 25 μg i.p. 30 min before ET 1.25 μg intraplantar, 9 h after ET, ET alone 0.87±0.09 s, saline 2.06±0.06 s)?
A: 2.05 ± 0.07 s

Q: And the “latency, paw immersion (PI) test” value ([2]; TAP 25 μg i.p. 30 min before ET 1.25 μg intraplantar, 9 h after ET, ET alone 1.25±0.04 s, saline 1.97±0.05 s)?
A: 1.94 ± 0.005 s

Q: And the “latency, tail flick (TF) test” value ([2]; TAP 25 μg i.p. 30 min before ET 1.25 μg intraplantar, 9 h after ET, ET alone 2.40±0.06 s, saline 3.19±0.08 s)?
A: 3.22 ± 0.09 s

Q: What about the “latency, hot-plate (HP) test” value ([2]; TAP 25 μg i.p. 30 min before ET 1.25 μg intraplantar, 9 h after ET, ET alone 6.0±0.18, saline 9.24±0.16 s) of the same substance?
A: 9.12 ± 0.7 s

Q: And the “effect on hyperalgesia induced by intraplantar ET” value ([2]; TAP 1.5 and 25 μg i.p. pretreatment, FIG. 1)?
A: reduced in dose-dependent fashion the hyperalgesia

Q: What about the “change in latency time in the pain tests, TAP alone” value ([2]; TAP alone 25 μg in 50 μl saline i.p., no ET) of the same substance?
A: did not result in significant change in the latency time
